Drawing on paper PMC12040169 (PLOS Biology, 2025), this text covers viability and % viability for 60 compounds.

Several values for one entry are separate records, joined by “and”; a condition that tells them apart may be missing. Identical values can stand only once.

One series can be described thus: in vitro. To be noted: human, hela cells, % viability.
The next series relates to HeLa. The settings on record: bulk resorufin, single well, 28.5 h, 10 µM, Bulk resorufin fluorescence.

As usually defined, the viability is a read-out of living cells in per cent, often relative to untreated cells. In the case of `COc1ccc([C@@]23CC[C@@H](CNS(=O)(=O)c4cccc(Cl)c4)C[C@@H]2N(C)CC3)cc1OC` [CBK042202T], in the series “in vitro”, the viability at 28.5 h, 10 µM is 99.8%. In the series with HeLa, the % viability worked out at 91.5%.
For the compound `CCOC(=O)N1CCC(NS(=O)(=O)c2ccc3ccccc3c2)CC1` [CBK045452], in the series “in vitro”, the viability at 28.5 h, 10 µM is 92%. In the series with HeLa, the % viability was 93.1% and 96.6%.
On to `CCOC(=O)N1CCC(NS(=O)(=O)c2ccc(Oc3ccccc3)cc2)CC1` [CBK045469], for which the viability at 28.5 h, 10 µM in “in vitro” was 98.4%. In addition, the % viability in the series with HeLa was found to be 97.7%.
Turning to `O=C(Nc1ccccc1OC1CCNCC1)C1CCC1` [CBK045901T], in “in vitro”, the viability at 28.5 h, 10 µM came out at 109%. Further, in the series with HeLa, the % viability worked out at 97.8%.
In the same order, the values of `O=C(Nc1ccccc1OC1CCNCC1)C1CCCO1` (stereo not drawn) [CBK045905T] are 91.1% and 110%.
In the same order, the values of `CC(=O)Nc1ccc(S(=O)(=O)Nc2c(C(=O)N3CCN(C)CC3)[nH]c3ccccc23)cc1` [CBK050044] are 94.9% and 93.9%.
Take `Cc1nn(C)c(N2CCNCC2)c1NC(=O)c1ccoc1` [CBK050302T]: in the series “in vitro”, the viability at 28.5 h, 10 µM was 99.7%. In addition, the % viability with HeLa is 108%.
For `CN1CCN(S(=O)(=O)c2ccc(C(=O)O)cc2)CC1` [CBK062446], the viability at 28.5 h, 10 µM in “in vitro” stood at 90.4%. The % viability in the series with HeLa was 109% and 101%.
For `Cc1c(S(=O)(=O)NCCN2CCNC2=O)cnn1-c1ccccc1` [CBK062603], the viability at 28.5 h, 10 µM in “in vitro” was found to be 117%. In the series with HeLa, the % viability amounted to 99.3%.
In the same order, the values of `CCCNC(=O)[C@@H]1Cc2c([nH]c3ccccc23)[C@]2(CCN(CCOc3ccccc3)C2)N1` [CBK063172T] are 101% and 86%.
For `Cc1nn(C)c(Cl)c1S(=O)(=O)Nc1nc(=O)[nH]cc1F` [CBK067568], in the series “in vitro”, the viability at 28.5 h, 10 µM was 99.1%. Besides, the % viability in the series on HeLa is 97.9% and 87.2%.
For the compound `Cc1csc(NC(=O)c2ccc(S(=O)(=O)N3CCCCC3)cc2)n1` [CBK069735], in the series “in vitro”, the viability at 28.5 h, 10 µM was 102%. In addition, the % viability with HeLa is 103%.
Taken in the same sequence, the figures for `COc1cccc(NC(=O)c2sc3ncn(C)c(=O)c3c2C)c1` [CBK071807] were 99.2% and 82.5%.
Take `COc1ccc(C(=O)Nc2nnc(CC(=O)N/N=C/c3ccccc3OC)s2)cc1` [CBK072076]: the viability at 28.5 h, 10 µM in the series “in vitro” amounted to 91.8%. Also, in the series with HeLa, the % viability turned out to be 101%.
With `COc1nccnc1OC1CCNCC1` [CBK073919T], the viability at 28.5 h, 10 µM in the series “in vitro” was found to be 100%. Besides, in the series on HeLa, the % viability is 86.5% and 97.3%.
As for `CCCc1[nH]nc(O)c1CCc1ccc(Cl)cc1Cl` [CBK075082], in the series “in vitro”, the viability at 28.5 h, 10 µM was found to be 106%. Further, the % viability with HeLa is 109%.
As to `CC(=O)n1cc(C2C(=O)NN=C2C)c2ccccc21` (stereo not drawn) [CBK083563], the viability at 28.5 h, 10 µM in “in vitro” was determined as 102%. For the same compound, in the series on HeLa, the % viability was determined as 82.3%.
Take `Nc1c(-c2cccc3cccnc23)cnc2ncccc12` [CBK083682]: in “in vitro”, the viability at 28.5 h, 10 µM worked out at 108%. Moreover, the % viability in the series on HeLa stood at 88.7%.
Turning to `Clc1ccc(COc2ccnc(N3CCCN(CCN4CCOCC4)CC3)n2)cc1Cl` [CBK083957], in the series “in vitro”, the viability at 28.5 h, 10 µM is 97.8%. For the same compound, the % viability with HeLa was found to be 98.9%.
In the same order, the values of `Clc1ccc(COc2cncc(OC3CCN(CCN4CCOCC4)C3)n2)cc1Cl` (stereo not drawn) [CBK084433] are 87% and 100%.
In the same order, the values of `CS(=O)(=O)Nc1cc2cccnc2nc1-c1ccc2c(c1)CCO2` [CBK085690] are 104% and 102%.
Taken in the same sequence, the figures for `COc1cc(F)ccc1-c1nc(NS(C)(=O)=O)cc2ccccc12` [CBK085751] were 97.2% and 105%.
`CC(=O)Nc1ccc(NS(=O)(=O)c2ccc(O)c(C(=O)O)c2)cc1` [CBK092150]: in the series “in vitro”, the viability at 28.5 h, 10 µM came to 115%. In addition, the % viability in the series on HeLa worked out at 96.9%.
On to `COc1cc(-c2ccc(OC3CCNCC3)cc2)cc(OC)c1OC` [CBK093682], for which the viability at 28.5 h, 10 µM in “in vitro” stood at 99%. In the series with HeLa, the % viability was 102%.
In the same order, the values of `CC(C)(C)c1cc(C(=O)NCCN2CCCC2)n(Cc2ccc(Cl)cc2Cl)n1` [CBK107290] are 115% and 110%.
For `O=C(CSC1=NCCS1)Nc1ccnc2ccccc12` [CBK112077], in “in vitro”, the viability at 28.5 h, 10 µM turned out to be 101%. Besides, in the series on HeLa, the % viability came out at 98.9%.
With `CN(C)S(=O)(=O)c1cc(C(=O)O)c(Cl)cc1Cl` [CBK113173], in “in vitro”, the viability at 28.5 h, 10 µM turned out to be 101%. Moreover, the % viability in the series on HeLa was 94%.
Taken in the same sequence, the figures for `CCOC(=O)c1sc2nccc(Nc3ccccc3)c2c1N` [CBK115365] were 90.8% and 91.8%.
Consider `OC1CCn2c1nc1cc(C(F)(F)F)ccc12` (stereo not drawn) [CBK115448], for which the viability at 28.5 h, 10 µM in the series “in vitro” was 80.4%. Besides, the % viability in the series on HeLa was determined as 70.8%.
In the same order, the values of `COc1ccc(C2N(CC(N)=O)CCOC23CCN(C(=O)c2ccc4ccccc4c2)CC3)cc1` (stereo not drawn) [CBK115613] are 96.9% and 101%.
Taken in the same sequence, the figures for `FC(F)(F)c1ccnc(OCCCc2ccncc2)c1` [CBK115786] were 109% and 101%.
In the case of `CCCCOC(=O)c1ccc(NC(=O)Nc2ccc3ccc(Cl)nc3n2)cc1` [CBK115932], the viability at 28.5 h, 10 µM in the series “in vitro” turned out to be 93.8%. The % viability in the series with HeLa was 97.1%.
With `COc1ccc2[nH]cc(CCNC(=O)Cc3c[nH]c4ccc(O)cc34)c2c1` [CBK116216], the viability at 28.5 h, 10 µM in “in vitro” amounted to 98.6%. Besides, the % viability in the series with HeLa was determined as 84.5%.
With `Oc1ccc(-c2cncc(-c3ccc(CN4CCOCC4)cc3)n2)cc1` [CBK123787], in “in vitro”, the viability at 28.5 h, 10 µM was determined as 104%. Moreover, in the series on HeLa, the % viability was 108%.
Taken in the same sequence, the figures for `CC(C)c1ccc(CN2CCC(Cc3ccccc3)CC2)cc1` [CBK126378] were 99.1% and 109%.
In the same order, the values of `O=C(O)CCS(=O)(=O)c1cccc2cccnc12` [CBK131911] are 102% and 92.5%.
Consider `CCN(Cc1ccccc1)C(=O)NCC1COc2ccccc2O1` (stereo not drawn) [CBK155213], for which the viability at 28.5 h, 10 µM in “in vitro” was determined as 103%. Also, the % viability in the series with HeLa was determined as 89.3%.
Taken in the same sequence, the figures for `CCN(CC)c1ccc(NC(=O)N2CCN(Cc3ccccc3)CC2)cc1` [CBK155645] were 99.7% and 90.4%.
Taken in the same sequence, the figures for `CC(=O)NCc1cccc(-c2cc(C(=O)Nc3ccc4c(c3)OCCO4)cnc2N2CCOCC2)c1` [CBK159355C] were 90.1% and 102%.
Taken in the same sequence, the figures for `COc1ccc(C(=O)Nc2ccc(OCC(=O)O)cc2)cc1` [CBK260894] were 91.4% and 85.6%.
Take `COc1ccc(C(CC(=O)O)NC(=O)c2ccccc2)cc1` (stereo not drawn) [CBK261121]: the viability at 28.5 h, 10 µM in the series “in vitro” is 89.3%. For the same compound, the % viability with HeLa amounted to 93.9%.
Taken in the same sequence, the figures for `O=C(O)CCNc1c(C(=O)O)cnc2ccccc12` [CBK261139] were 83.3% and 89%.
In the same order, the values of `COc1ccc(/C=C/C(=O)O)cc1S(=O)(=O)N1CCOCC1` [CBK261247] are 101% and 84.7%.
On to `O=C(O)/C=C\C(=O)Nc1ccccc1C#Cc1ccccc1` [CBK261680], for which the viability at 28.5 h, 10 µM in “in vitro” came to 82.9%. In addition, the % viability in the series on HeLa turned out to be 83.2%.
In the same order, the values of `CC1(C)CC(NC(=O)/C=C/C(=O)O)CC(C)(C)N1` [CBK262018] are 88.4% and 90.9%.
Taken in the same sequence, the figures for `Cc1ccc(C(=O)NCC(=O)NCC(=O)O)cc1` [CBK262170] were 103% and 91.7%.
In the same order, the values of `O=C(O)C(Cc1ccc(O)cc1)N1C(=O)c2ccccc2C1=O` (stereo not drawn) [CBK262479] are 84.1% and 80.4%.
Turning to `O=C(O)c1cc(S(=O)(=O)NCc2ccco2)c(Cl)cc1N1CCCCC1` [CBK263409], the viability at 28.5 h, 10 µM in the series “in vitro” is 108%. In addition, the % viability in the series on HeLa came to 92.5%.
Consider `CCN(CC)CCNC(=O)/C(=N\O)c1ccccn1` [CBK264538], for which, in “in vitro”, the viability at 28.5 h, 10 µM came to 90.6%. Moreover, in the series with HeLa, the % viability worked out at 93.9%.
On to `Cn1c(=O)c2c(-c3ccccc3)n(-c3ccc(C(=O)O)cc3)cc2n(C)c1=O` [CBK265040], for which, in the series “in vitro”, the viability at 28.5 h, 10 µM was found to be 84%. Further, the % viability with HeLa is 98.4%.
Taken in the same sequence, the figures for `O=C(CC1SC(Nc2ccc(O)cc2)=NC1=O)c1ccccc1` (stereo not drawn) [CBK267009] were 98.5% and 89%.
Taken in the same sequence, the figures for `O=C(O)C1(c2ccccc2)CCN(S(=O)(=O)c2ccc(F)cc2)CC1` [CBK267571] were 92.9% and 87.8%.
Consider `O=C(O)CCS(=O)(=O)c1nc(-c2ccccc2)cc(C(F)(F)F)n1` [CBK268832], for which, in “in vitro”, the viability at 28.5 h, 10 µM stood at 104%. Besides, the % viability in the series on HeLa was found to be 102%.
Taken in the same sequence, the figures for `Cc1nnc(SCC(=O)Nc2ccc(CN3CCOCC3)cc2)s1` [CBK269849] were 96.4% and 112%.
In the same order, the values of `O=c1cc(CSc2ccccn2)[nH]c2[nH]n(-c3ccccc3)c(=O)c12` [CBK269895] are 92.7% and 109%.
In the same order, the values of `O=C(Cn1c([C@H]2CCCO2)cc2cccnc21)NC1CC1` [CBK282274] are 94.8% and 102%.
With `O=C(Cn1c([C@@H]2CCCO2)cc2cccnc21)N1CCCCCC1` [CBK282285], the viability at 28.5 h, 10 µM in the series “in vitro” is 88%. The % viability in the series with HeLa came to 101%.
In the same order, the values of `CC1CCCN(Cc2c([C@H]3CCCO3)[nH]c3ncccc23)C1` (stereo partly drawn) [CBK282287] are 110% and 106%.
In the same order, the values of `CC[C@@H](Cn1nc(-c2cccs2)ccc1=O)NC(=O)c1ccco1` [CBK282308] are 94.7% and 87.3%.
As for `O=C(NC1CCCCC1)[C@H]1C=CCN1C(=O)c1ccc(F)cc1F` [CBK282311], the viability at 28.5 h, 10 µM in “in vitro” stood at 95%. The % viability in the series with HeLa turned out to be 97.2%.
